In brackets after ≈: the same amount, converted by molar mass.

Data set [1] deals with CD1 mice administered 1% ethylene glycol. In words: Mouse ethylene glycol model of hyperoxaluria, urinary oxalate. The data set is classed as in vivo. Particulars: CD-1 mice, twice-daily oral gavage 50 mg/kg. How it is done: Mouse Models of Hyperoxaluria for Determining In Vivo Efficacy of hGOX Inhibitors
Male CD1 mice, 6-8 weeks of age (Charles River Labs, Wilmington, Mass.) were administered 1% ethylene glycol ad libitum their drinking water for 14 days. The mice were housed in individual cages, fed ad libitum and 24-h urine collections were initiated on days 1, 5, 9 and 14 using a 15-rack metabolic cage system equipped with a CCS2000 chiller system (Hatteras Instruments, Cary, N.C.) to maintain the samples at 4° C. during collection. Hydrochloric acid (100 μL of 6N) added to the collection vials to acidify the samples and prevent degradation of oxalate before evaluation.
Urine samples were maintained at 4° C. and urinary oxalate concentrations were determined within 24 hours of sample collection using a Trinity Biotech oxalate assay kit (Catalog #591-D). The assay was an enzymatic method based on the oxidation of oxalate by oxalate oxidase followed by measurement of hydrogen peroxide (H2O2) produced during the peroxidase-catalyzed reaction. Briefly, a 1-mL aliquot of each sample was diluted with an equal volume of assay diluent to bring the pH to between 5.0 and 7.0, then placed into purifier tubes (provided in the kit) and mixed for 5 min. The tubes were centrifuged for 5 min at 2000 rpm (1500×g) and the supernatants collected for the oxalate assay. The procedure was specific for oxalate with no special equipment and was easily adaptable for clinical automated analyzers. Each assay included a standard curve prepared with a standardized oxalate control sample (included in the kit) and internal assay control samples for both a normal (0.2-0.3 mmol/L) and elevated (0.86-1.21 mmol/L) level of oxalate.
To evaluate in vivo efficacy, mice were dosed by once-daily oral gavage of compound I-002 in an appropriate vehicle (e.g., phosphate-buffered saline, pH 7.4) at a dosage of 100 mg/kg. […]
The effect of example I-001 in the ethylene glycol model using CD-1 mice was evaluated by twice-daily, oral gavage dosing at 50 mg/kg for 6 days (days 5-11). […]

The nature of data set [2]: Solubility in phosphate buffered saline (PBS), pH 7.4. The data set is classed as physicochemical. Particulars: phosphate buffer (PBS), aqueous buffer, kinetic from dmso stock; phosphate buffered saline pH 7.4, 1% DMSO, 1 hour shaking at room temperature. The method, boiled down:
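DMSO stock (10 mM) diluted into 100 mM phosphate buffer pH 7.4, or into deionized distilled water for the aqueous assay, at 1% final DMSO and shaken 1 h at room temperature. After centrifugation, supernatants quantified by LC-MS/MS against a calibration curve with internal standard.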

Data set [3] can be described thus: Protein binding (plasma equilibrium dialysis). In kind it is in vitro ADME. Particulars: 5 hours at 37° C. The procedure, abridged: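 Compound spiked into plasma at 1 μM final (0.2% DMSO) and dialysed against phosphate buffer for 5 hours at 37 °C with shaking. Donor and receiver samples, matrix-matched and acetonitrile-quenched with internal standard, quantified by LC/MS/MS alongside 0-hour plasma samples.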
On the technique in general: In equilibrium dialysis free small molecules cross a membrane that holds back macromolecules.

As to `O=C(O)c1nn[nH]c1Sc1ccc(Cl)cc1` [Example I-001, 5-((4-chlorophenyl)thio)-1H-1,2,3-triazole-4-carboxylic acid], the “decrease of total urinary oxalate values (μmole/24 hr/mL)” value is listed as 24% in data set [1] (24-hour urine collection after 3 days of drug treatment) and 32% in data set [1] (24-hour urine collection after 6 days of drug treatment). In addition, the solubility at 1 h in data set [2] came out at 94.5 µM (≈ 24.1 µg/mL). Also, in data set [3], the recovery at 5 h, 1 μM stood at 75.4%.

One may read the solubility as how much of the substance goes into solution per volume. A higher solubility goes with much dissolved substance.

The record behind these values is US11389456B2, “Compounds and methods for treating oxalate-related diseases” (OxaluRx, Inc., priority 2018, dated 2022).
